Source: patent publication US20230085307A1, “PYRIDAZINONE COMPOUND AND HERBICIDE” (NISSAN CHEMICAL CORPORATION, priority 2019, published 2023)

How the values were obtained:
Japanese bulrush = assay: Test Example 1: herbicidal activity, application before weed generation under submerged conditions (Table 16, symbol B); type: in vivo, Japanese bulrush (Schoenoplectus juncoides); conditions: 320 g/ha applied herbicide
How it was run: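 Alluvial soil was flooded to 4 cm depth, weed seeds were sown mixed and 2.5-leaf rice seedlings were transplanted. On sowing day, the compound's emulsion, diluted in water to a set dose, was applied to the water surface. Plants grew at 25–30 °C and were scored 0–5 after three weeks.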

late watergrass = assay: Test Example 2: herbicidal activity, application during weed generation under submerged conditions (Table 17, symbol A); type: in vivo, late watergrass (Echinochloa oryzicola); conditions: AAH 320 g/ha; application during weed generation, submerged conditions
How it was run: (§1)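 Wagner pot, alluvial soil, 4 cm flood; mixed sowing of all species; greenhouse 25° C.–30° C. Emulsifiable formulation, water-diluted to predetermined dose, applied to paddy water at 1–2 leaf stage. Effect rated at 3 wk using the earlier test's scoring criteria.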

oval-leafed pondweed = assay: Test Example 2: herbicidal activity, application during weed generation under submerged conditions (Table 17, symbol C); type: in vivo, oval-leafed pondweed (Monochoria vaginalis); conditions: AAH 320 g/ha; application during weed generation, submerged conditions
How it was run: as §1

Chinese sprangletop = assay: Test Example 3: herbicidal effect by foliage application, Wagner pot (Table 18, symbol D); type: in vivo, chinese sprangletop (Leptochloa chinensis); conditions: for herbicidal effect on D (Chinese sprangletop), rating 0-5: 320 g/ha
How it was run: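 Plants were sown in alluvial soil held under 0.1–0.5 cm standing water and grown 14 days in a greenhouse at 25–30 °C. An emulsifiable formulation, water-diluted to the set dose, was then sprayed onto the foliage, and effects were scored three weeks later using previously defined criteria.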

southern crabgrass = assay: Test Example 4: herbicidal effect by soil treatment (Table 19, symbol F); type: in vivo, southern crabgrass (Digitaria ciliaris)
How it was run: (§2)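 Three weeks of greenhouse growth at 25° C. to 30° C. followed a uniform surface spray of water-diluted emulsion at a predetermined herbicide amount. Seeds had been sown beforehand under about 1.5 cm of sterilized diluvial soil. Grading followed criteria set out in an earlier test.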

wild oat [1] = assay: Test Example 4: herbicidal effect by soil treatment (Table 19, symbol I); type: in vivo, wild oat (Avena fatua)
How it was run: as §2

blackgrass = assay: Test Example 4: herbicidal effect by soil treatment (Table 19, symbol J); type: in vivo, blackgrass (Alopecurus myosuroides)
How it was run: as §2

Italian ryegrass = assay: Test Example 4: herbicidal effect by soil treatment (Table 19, symbol K); type: in vivo, Italian ryegrass (Lolium multiflorum)
How it was run: as §2

windgrass [2] = assay: Test Example 4: herbicidal effect by soil treatment (Table 19, symbol L); type: in vivo, windgrass (Apera spica-venti)
How it was run: as §2

lambsquarters [3] = assay: Test Example 4: herbicidal effect by soil treatment (Table 19, symbol O); type: in vivo, lambsquarters (Chenopodium album)
How it was run: as §2

persian speedwell [4] = assay: Test Example 4: herbicidal effect by soil treatment (Table 19, symbol R); type: in vivo, Persian speedwell (Veronica persica)
How it was run: as §2

barnyard grass = assay: Test Example 5: herbicidal effect by foliage application, plastic box (Table 20, symbol H); type: in vivo, barnyard grass (Echinochloa crus-galli); conditions: foliage application, 320 g/ha
How it was run: (§3)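 Plants sown in sterilized diluvial soil and grown 14 days in a greenhouse at 25° C to 30° C, then sprayed on the foliage with the compound's emulsion diluted in water to a predetermined herbicide amount. Injury to weeds and crops scored three weeks after application on a visual rating scale.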

wild oat [5] = assay: Test Example 5: herbicidal effect by foliage application, plastic box (Table 20, symbol I); type: in vivo, wild oat (Avena fatua); conditions: foliage application, 320 g/ha
How it was run: as §3

windgrass [6] = assay: Test Example 5: herbicidal effect by foliage application, plastic box (Table 20, symbol L); type: in vivo, windgrass (Apera spica-venti); conditions: foliage application, 320 g/ha
How it was run: as §3

velvetleaf = assay: Test Example 5: herbicidal effect by foliage application, plastic box (Table 20, symbol M); type: in vivo, velvetleaf (Abutilon theophrasti); conditions: foliage application, 320 g/ha
How it was run: as §3

lambsquarters [7] = assay: Test Example 5: herbicidal effect by foliage application, plastic box (Table 20, symbol O); type: in vivo, lambsquarters (Chenopodium album); conditions: foliage application, 320 g/ha
How it was run: as §3

persian speedwell [8] = assay: Test Example 5: herbicidal effect by foliage application, plastic box (Table 20, symbol R); type: in vivo, Persian speedwell (Veronica persica); conditions: foliage application, 320 g/ha
How it was run: as §3

[9] = amount of applied herbicide 320 g/ha
[10] = evaluated three weeks after application

With CCCC(=O)Oc1c(C)nn(C)c(=O)c1-c1c(-c2cccc(OCC(C)C)c2)sc2ccc(F)cc12 [2-222] as the compound, how does the “Herbicidal effect on B: Japanese bulrush (grade 0-5)” value (Japanese bulrush) read?
Its value is 4 (Herbicidal rate of 70% or more and less than 90%).

And the “herbicidal effect rating, A: late watergrass” value (late watergrass)?
The value was 2 (Herbicidal rate of 20% or more and less than 40%).

And the “herbicidal effect rating, C: oval-leafed pondweed” value (oval-leafed pondweed)?
The value was 3 (Herbicidal rate of 40% or more and less than 70%).

What about the “herbicidal effect on D: Chinese sprangletop” value (Chinese sprangletop; [9]) of the same compound?
Its value is 5 (Herbicidal rate of 90% or more (almost completely withered)).

And the “herbicidal effect on F: southern crabgrass” value (southern crabgrass; [9])?
Its value is 1 (Herbicidal rate of 5% or more and less than 20%).

And the “herbicidal effect on I: wild oat” value (wild oat [1]; [9])?
The value was 0 (Herbicidal rate of 5% or less (almost no effect)).

What about the “herbicidal effect on J: blackgrass” value (blackgrass; [9]) of the same compound?
The value was 4 (Herbicidal rate of 70% or more and less than 90%).

What about the “herbicidal effect on K: Italian ryegrass” value (Italian ryegrass; [9]) of the same compound?
Its value is 2 (Herbicidal rate of 20% or more and less than 40%).

What about the “herbicidal effect on L: windgrass” value (windgrass [2]; [9]) of the same compound?
The value was 4 (Herbicidal rate of 70% or more and less than 90%).

What about the “herbicidal effect on O: lambsquarters” value (lambsquarters [3]; [9]) of the same compound?
The value was 4 (Herbicidal rate of 70% or more and less than 90%).

And the “herbicidal effect on R: persian speedwell” value (persian speedwell [4]; [9])?
The value was 5 (Herbicidal rate of 90% or more (almost completely withered)).

What about the “herbicidal effect on H: barnyard grass (criteria 0-5)” value (barnyard grass; [10]) of the same compound?
Its value is 5 (Herbicidal rate of 90% or more (almost completely withered)).

What about the “herbicidal effect on I: wild oat (criteria 0-5)” value (wild oat [5]; [10]) of the same compound?
Its value is 3 (Herbicidal rate of 40% or more and less than 70%).

And the “herbicidal effect on L: windgrass (criteria 0-5)” value (windgrass [6]; [10])?
The value was 4 (Herbicidal rate of 70% or more and less than 90%).

And the “herbicidal effect on M: velvetleaf (criteria 0-5)” value (velvetleaf; [10])?
The value was 5 (Herbicidal rate of 90% or more (almost completely withered)).

And the “herbicidal effect on O: lambsquarters (criteria 0-5)” value (lambsquarters [7]; [10])?
The value was 5 (Herbicidal rate of 90% or more (almost completely withered)).

What about the “herbicidal effect on R: persian speedwell (criteria 0-5)” value (persian speedwell [8]; [10]) of the same compound?
The value was 5 (Herbicidal rate of 90% or more (almost completely withered)).

Which results are given for Cc1nn(C)c(=O)c(-c2c(-c3ccc(OCC4CC4)cc3)sc3ccc(F)cc23)c1O [2-060]?
Herbicidal effect on B: Japanese bulrush (grade 0-5) (Japanese bulrush): 5 (Herbicidal rate of 90% or more (almost completely withered)); herbicidal effect rating, A: late watergrass (late watergrass): 0 (Herbicidal rate of 5% or less (almost no effect)); herbicidal effect rating, C: oval-leafed pondweed (oval-leafed pondweed): 1 (Herbicidal rate of 5% or more and less than 20%); herbicidal effect on D (Chinese sprangletop), rating 0-5 (Chinese sprangletop): 3 (Herbicidal rate of 40% or more and less than 70%); herbicidal effect rating, F: southern crabgrass (southern crabgrass; 320 g/ha): 3 (Herbicidal rate of 40% or more and less than 70%); herbicidal effect rating, I: wild oat (wild oat [1]; 320 g/ha): 0 (Herbicidal rate of 5% or less (almost no effect)); herbicidal effect rating, J: blackgrass (blackgrass; 320 g/ha): 0 (Herbicidal rate of 5% or less (almost no effect)); herbicidal effect rating, K: Italian ryegrass (Italian ryegrass; 320 g/ha): 0 (Herbicidal rate of 5% or less (almost no effect)); herbicidal effect rating, L: windgrass (windgrass [2]; 320 g/ha): 0 (Herbicidal rate of 5% or less (almost no effect)); herbicidal effect rating, O: lambsquarters (lambsquarters [3]; 320 g/ha): 4 (Herbicidal rate of 70% or more and less than 90%); herbicidal effect rating, R: persian speedwell (persian speedwell [4]; 320 g/ha): 5 (Herbicidal rate of 90% or more (almost completely withered)); herbicidal effect on H: barnyard grass (barnyard grass; [10]): 3 (Herbicidal rate of 40% or more and less than 70%); herbicidal effect on I: wild oat (wild oat [5]; [10]): 0 (Herbicidal rate of 5% or less (almost no effect)); herbicidal effect on L: windgrass (windgrass [6]; [10]): 4 (Herbicidal rate of 70% or more and less than 90%); herbicidal effect on M: velvetleaf (velvetleaf; [10]): 4 (Herbicidal rate of 70% or more and less than 90%); herbicidal effect on O: lambsquarters (lambsquarters [7]; [10]): 4 (Herbicidal rate of 70% or more and less than 90%); herbicidal effect on R: persian speedwell (persian speedwell [8]; [10]): 5 (Herbicidal rate of 90% or more (almost completely withered))

For C#CCSCc1ccc(-c2sc3ccccc3c2-c2c(O)c(C)nn(C)c2=O)cc1 [1-247], which “Herbicidal effect on B: Japanese bulrush (grade 0-5)” value (Japanese bulrush) is on record?
The value was 2 (Herbicidal rate of 20% or more and less than 40%).

What about the “herbicidal effect rating, A: late watergrass” value (late watergrass) of the same compound?
The value was 3 (Herbicidal rate of 40% or more and less than 70%).

And the “herbicidal effect rating, C: oval-leafed pondweed” value (oval-leafed pondweed)?
Its value is 0 (Herbicidal rate of 5% or less (almost no effect)).

What about the “herbicidal effect on D (Chinese sprangletop), rating 0-5” value (Chinese sprangletop) of the same compound?
The value was 1 (Herbicidal rate of 5% or more and less than 20%).

What about the “F: southern crabgrass, herbicidal effect rating” value (southern crabgrass; AAH 320 g/ha) of the same compound?
Its value is 0 (Herbicidal rate of 5% or less (almost no effect)).

And the “I: wild oat, herbicidal effect rating” value (wild oat [1]; AAH 320 g/ha)?
The value was 0 (Herbicidal rate of 5% or less (almost no effect)).

What about the “J: blackgrass, herbicidal effect rating” value (blackgrass; AAH 320 g/ha) of the same compound?
Its value is 0 (Herbicidal rate of 5% or less (almost no effect)).

And the “K: Italian ryegrass, herbicidal effect rating” value (Italian ryegrass; AAH 320 g/ha)?
The value was 3 (Herbicidal rate of 40% or more and less than 70%).

And the “L: windgrass, herbicidal effect rating” value (windgrass [2]; AAH 320 g/ha)?
The value was 0 (Herbicidal rate of 5% or less (almost no effect)).

And the “O: lambsquarters, herbicidal effect rating” value (lambsquarters [3]; AAH 320 g/ha)?
Its value is 3 (Herbicidal rate of 40% or more and less than 70%).

What about the “R: persian speedwell, herbicidal effect rating” value (persian speedwell [4]; AAH 320 g/ha) of the same compound?
The value was 4 (Herbicidal rate of 70% or more and less than 90%).

And the “effect on barnyard grass (H)” value (barnyard grass; 3 weeks after application)?
The value was 4 (Herbicidal rate of 70% or more and less than 90%).

What about the “effect on wild oat (I)” value (wild oat [5]; 3 weeks after application) of the same compound?
The value was 1 (Herbicidal rate of 5% or more and less than 20%).

And the “effect on windgrass (L)” value (windgrass [6]; 3 weeks after application)?
The value was 0 (Herbicidal rate of 5% or less (almost no effect)).

And the “effect on velvetleaf (M)” value (velvetleaf; 3 weeks after application)?
Its value is 5 (Herbicidal rate of 90% or more (almost completely withered)).

And the “effect on lambsquarters (O)” value (lambsquarters [7]; 3 weeks after application)?
Its value is 5 (Herbicidal rate of 90% or more (almost completely withered)).

And the “effect on persian speedwell (R)” value (persian speedwell [8]; 3 weeks after application)?
Its value is 5 (Herbicidal rate of 90% or more (almost completely withered)).
